What was measured:
p-CHK1 (Ser345) = assay: AlphaLISA SureFire Ultra p-CHK1 (Ser345) cellular assay in HT29 cells; type: cell-based
Description: Example B: AlphaLisa Cellular Assay
Compound activity in cells was measured using an AlphaLISA® SureFire® Ultra™ p-CHK1 (Ser345) assay (Perkin Elmer, catalog no. ALSU-PCHK1-A10K). HT29 cells were cultured in McCoy 5A medium with 10% FBS and 1% penicillin-streptomycin and seeded to 96-well plates (Corning, catalog no. 3599). Compounds were serially diluted in DMSO over a 10-point dose range with 3-fold dilution and to each well containing cells was added compound solution. Plates were centrifuged at 1000 rpm for 30 seconds. Plates were incubated at 37° C. for 16 h. Supernatant was removed by flicking the plate against a paper towel. Wells were washed once with PBS solution. To each well was added freshly prepared lysis buffer and plates were agitated on a plate shaker at 400 rpm for 30 min. The 96-well cell plates were centrifuged at 1500 rpm for 1 minute. From each well was transferred 10 μL of the lysates to a 384-well Optiplate™ (Perkin Elmer, catalog no. 6007290). To each well was added Acceptor Mix (5 μL) and the plates were sealed and wrapped in foil. Plates were agitated on a plate shaker for 2 minutes, then incubated at room temperature for 1 h. To each well was added Donor Mix (5 μL) and the plates were sealed and wrapped in foil. Plates were agitated on a plate shaker for 2 minutes, then incubated at room temperature for 1 h. AlphaLisa signal was read on an EnVision multimode plate reader (Perkin Elmer). Data were fit to dose-response curves using XLfit (IDBS, Surrey, UK) or Prism (GraphPad Software, La Jolla, Calif., US) to calculate IC50 values for each compound tested.

[1] = molecular target: T1, Full-length human Chk1 protein (Homo sapiens, UniProt O14757); assay: Kinase HTRF biochemical assay (HTRF KinEASE), Chk1 enzyme activity; conditions: full-length human Chk1, ATP 1 mM, 60 minutes at room temperature
T1 construct: purchased Carna Biosciences, Inc. 02-117
T1 sequence (O14757 1-476): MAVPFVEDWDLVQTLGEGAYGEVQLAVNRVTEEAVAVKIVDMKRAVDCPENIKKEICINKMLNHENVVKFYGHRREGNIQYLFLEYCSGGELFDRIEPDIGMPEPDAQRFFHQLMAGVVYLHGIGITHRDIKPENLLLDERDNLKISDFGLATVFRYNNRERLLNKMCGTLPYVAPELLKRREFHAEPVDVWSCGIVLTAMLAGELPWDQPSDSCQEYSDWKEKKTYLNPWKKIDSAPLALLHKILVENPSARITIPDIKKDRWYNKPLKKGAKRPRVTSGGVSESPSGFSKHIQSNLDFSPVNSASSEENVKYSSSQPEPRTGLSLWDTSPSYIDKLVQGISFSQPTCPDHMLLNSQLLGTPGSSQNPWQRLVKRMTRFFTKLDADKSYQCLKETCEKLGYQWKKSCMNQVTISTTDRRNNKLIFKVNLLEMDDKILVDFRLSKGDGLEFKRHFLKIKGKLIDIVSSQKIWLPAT
Description: Example A: Kinase HTRF Biochemical Assay
Chk1 enzyme activity was measured using an HTRF KinEASE assay (Cisbio, catalog no. 62ST1PEC). Full-length human Chk1 protein (GenBank accession number NP_001265.1) was obtained from Carna Biosciences, Inc. (Kobe, Japan, catalog no. 02-117). The enzyme reaction was carried out in assay buffer containing (final concentrations): Chk1 enzyme (0.012 ng/μL), MgCl2 (5 mM) and DTT (1 mM). To determine compound dose response, DMSO stock solutions were serially diluted in a 10-point concentration series in duplicate. Compound solution (50 nL) was added to 384-well assay plates (Greiner, catalog no. 784075). To each well containing compound solution was added assay buffer solution (5 μL). Plates were centrifuged at 1000 rpm for 1 minute, then incubated at room temperature for 10 minutes. The reaction was started by addition of substrate buffer (5 μL/well) containing (final concentrations): STK substrate 1-biotin (120 nM) and ATP (1 mM). Assay plates were centrifuged at 1000 rpm for 1 minute, then incubated at room temperature for 60 minutes. The reaction was stopped by addition of detection buffer (Cisbio, 10 μL) containing (final concentrations): STK antibody-cryptate (0.25 nM) and streptavidin-XL665 (7.5 nM). Plates were centrifuged at 1000 rpm for 1 minute, then incubated at 25° C. for 2 hours. HTRF signal was read on an EnVision multimode plate reader […] in HTRF mode. Data were fit to dose-response curves using XLfit (IDBS, Surrey, UK) or Prism (GraphPad Software, La Jolla, Calif., US) to calculate IC50 values for each compound tested.

[2] = Homo sapiens, HT-29, 16 h at 37° C.

COc1c(F)ccc(O[C@@H]2CC[C@H](N)C2)c1-c1cc(Nc2cnc(C#N)cn2)n[nH]1 [Example 1-26, 5-((5-(6-(((1R,3S)-3-aminocyclopentyl)oxy)-3-fluoro-2-methoxyphenyl)-1H-pyrazol-3-yl)amino)pyrazine-2-carbonitrile]
IC50 (p-CHK1 (Ser345); [2]): 50 to 100 nM
IC50 [1]: 10 to 100 nM

N#Cc1cnc(Nc2cc(-c3c(F)cccc3O[C@@H]3CCC[C@H]3N)[nH]n2)cn1 [Example 3-40, 5-((5-(2-(((1R,2R)-2-aminocyclopentyl)oxy)-6-fluorophenyl)-1H-pyrazol-3-yl)amino)pyrazine-2-carbonitrile]
IC50 (p-CHK1 (Ser345); [2]): ≤ 50 nM
IC50 [1]: ≤ 10 nM

COc1cccc(O[C@H]2CC[C@@H](N)CC2)c1-c1cc(Nc2cnc(C#N)cn2)n[nH]1 [Example 1-11, 5-((5-(2-(((1s,4s)-4-aminocyclohexyl)oxy)-6-methoxyphenyl)-1H-pyrazol-3-yl)amino)pyrazine-2-carbonitrile]
IC50 (p-CHK1 (Ser345); [2]): 100 to 500 nM
IC50 [1]: 10 to 100 nM

COc1cccc(O[C@H]2C[C@@H](N)C2)c1-c1cc(Nc2cnc(C#N)cn2)n[nH]1 [Example 1-4, 5-((5-(2-((1s,3s)-3-aminocyclobutoxy)-6-methoxyphenyl)-1H-pyrazol-3-yl)amino)pyrazine-2-carbonitrile]
IC50 (p-CHK1 (Ser345); [2]): > 1000 nM
IC50 [1]: 100 to 500 nM

Cc1ccc(O[C@H]2C[C@H](N)C2)c(-c2cc(Nc3cnc(C#N)cn3)n[nH]2)n1 [Example 1-62, 5-((5-(3-((1r,3r)-3-aminocyclobutoxy)-6-methylpyridin-2-yl)-1H-pyrazol-3-yl)amino)pyrazine-2-carbonitrile]
IC50 (p-CHK1 (Ser345); [2]): 100 to 500 nM
IC50 [1]: 10 to 100 nM

COc1cccc(O[C@@H]2CC[C@H](N)C2)c1-c1cc(Nc2cnc(C#N)c(C)n2)n[nH]1 [Example 1-39, 5-((5-(2-(((1R,3S)-3-aminocyclopentyl)oxy)-6-methoxyphenyl)-1H-pyrazol-3-yl)amino)-3-methylpyrazine-2-carbonitrile]
IC50 (p-CHK1 (Ser345); [2]): 500 to 1000 nM
IC50 [1]: 10 to 100 nM

COc1cccc(O[C@H]2CCCC[C@H](N)C2)c1-c1cc(Nc2cnc(C#N)cn2)n[nH]1 [Example 3-7, 5-((5-(2-(((1S,3S)-3-aminocycloheptyl)oxy)-6-methoxyphenyl)-1H-pyrazol-3-yl)amino)pyrazine-2-carbonitrile]
IC50 (p-CHK1 (Ser345); [2]): ≤ 50 nM
IC50 [1]: ≤ 10 nM

COc1cccc(O[C@H]2C[C@H](N)C2)c1-c1cc(Nc2cnc(C#N)cn2)n[nH]1 [Example 1-5, 5-((5-(2-((1r,3r)-3-aminocyclobutoxy)-6-methoxyphenyl)-1H-pyrazol-3-yl)amino)pyrazine-2-carbonitrile]
IC50 (p-CHK1 (Ser345); [2]): ≤ 50 nM
IC50 [1]: ≤ 10 nM

COc1cccc(O[C@H]2CC3(C[C@@H](N)C3)C2)c1-c1cc(Nc2cnc(C#N)cn2)n[nH]1 (stereo partly shown) [Example 3-11, 5-((5-(2-((6-aminospiro[3.3]heptan-2-yl)oxy)-6-methoxyphenyl)-1H-pyrazol-3-yl)amino)pyrazine-2-carbonitrile]
IC50 (p-CHK1 (Ser345); 16 h at 37° C.): ≤ 50 nM
IC50 [1]: ≤ 10 nM

CCCc1ccc(O[C@@H]2CC[C@H](N)C2)c(-c2cc(Nc3cnc(C#N)cn3)n[nH]2)n1 [Example 3-47, 5-((5-(3-(((1R,3S)-3-aminocyclopentyl)oxy)-6-propylpyridin-2-yl)-1H-pyrazol-3-yl)amino)pyrazine-2-carbonitrile]
IC50 (p-CHK1 (Ser345); [2]): 50 to 100 nM
IC50 [1]: ≤ 10 nM

CN[C@@H]1CC[C@@H](Oc2ccc(Cl)c(F)c2-c2cc(Nc3cnc(C#N)cn3)n[nH]2)C1 [Example 3-22, 5-((5-(3-chloro-2-fluoro-6-(((1R,3R)-3-(methylamino)cyclopentyl)oxy)phenyl)-1H-pyrazol-3-yl)amino)pyrazine-2-carbonitrile]
IC50 (p-CHK1 (Ser345); [2]): 100 to 500 nM
IC50 [1]: 10 to 100 nM

N#Cc1cnc(Nc2cc(-c3c(F)cccc3O[C@@H]3CCCC[C@H](N)C3)[nH]n2)cn1 [Example 3-35, 5-((5-(2-(((1R,3S)-3-aminocycloheptyl)oxy)-6-fluorophenyl)-1H-pyrazol-3-yl)amino)pyrazine-2-carbonitrile]
IC50 (p-CHK1 (Ser345); [2]): ≤ 50 nM
IC50 [1]: ≤ 10 nM

N#Cc1cnc(Nc2cc(-c3ccccc3O[C@@H]3CC[C@@H](N)C3)[nH]n2)cn1 (stereo in doubt) [Example 1-37, 5-((5-(2-(((1R,3R)-3-aminocyclopentyl)oxy)phenyl)-1H-pyrazol-3-yl)amino)pyrazine-2-carbonitrile]
IC50 (p-CHK1 (Ser345); [2]): > 1000 nM
IC50 [1]: 100 to 500 nM

CN[C@H]1CC[C@H](Oc2cccc(OC)c2-c2cc(Nc3cnc(C#N)cn3)n[nH]2)CC1 [Example 1-45, 5-((5-(2-methoxy-6-(((1r,4r)-4-(methylamino)cyclohexyl)oxy)phenyl)-1H-pyrazol-3-yl)amino)pyrazine-2-carbonitrile]
IC50 (p-CHK1 (Ser345); [2]): 50 to 100 nM
IC50 [1]: ≤ 10 nM

COc1cccc(OC[C@H]2C[C@H](N)C2)c1-c1cc(Nc2cnc(C#N)cn2)n[nH]1 [Example 1-3]
IC50 [1]: > 1000 nM

COCc1cccc(O[C@@H]2CC[C@H](N)C2)c1-c1cc(Nc2cnc(C#N)cn2)n[nH]1 [Example 1-30, 5-((5-(2-(((1R,3S)-3-aminocyclopentyl)oxy)-6-(methoxymethyl)phenyl)-1H-pyrazol-3-yl)amino)pyrazine-2-carbonitrile]
IC50 [1]: > 1000 nM

COc1cccc(O[C@H]2CC[C@H](N)C2)c1-c1cc(Nc2cnc(C#N)cn2)n[nH]1 [Example 1-6, 5-((5-(2-(((1S,3S)-3-aminocyclopentyl)oxy)-6-methoxyphenyl)-1H-pyrazol-3-yl)amino)pyrazine-2-carbonitrile]
IC50 [1]: > 1000 nM

N#Cc1cnc(Nc2cc(-c3c(OCC4CC4)cccc3O[C@H]3CC[C@H](N)CC3)[nH]n2)cn1 [Example 1-31, 5-((5-(2-(((1r,4r)-4-aminocyclohexyl)oxy)-6-(cyclopropylmethoxy)phenyl)-1H-pyrazol-3-yl)amino)pyrazine-2-carbonitrile]
IC50 [1]: 100 to 500 nM

N#Cc1cnc(Nc2cc(-c3c(F)cccc3O[C@@H]3CCC[C@@H]3N)[nH]n2)cn1 [Example 3-39, 5-((5-(2-(((1R,2S)-2-aminocyclopentyl)oxy)-6-fluorophenyl)-1H-pyrazol-3-yl)amino)pyrazine-2-carbonitrile]
IC50 [1]: 100 to 500 nM

COc1cccc(O[C@H]2CC[C@H]2N)c1-c1cc(Nc2cnc(C#N)cn2)n[nH]1 [Example 3-3, 5-((5-(2-((1S,2R)-2-aminocyclobutoxy)-6-methoxyphenyl)-1H-pyrazol-3-yl)amino)pyrazine-2-carbonitrile]
IC50 [1]: 100 to 500 nM

COc1cccc(O[C@H]2CCC[C@H](N)C2)c1-c1cc(Nc2cnc(C#N)cn2)n[nH]1 [Example 1-65, 5-[[5-[2-[(1S,3S)-3-aminocyclohexoxy]-6-methoxy-phenyl]-1H-pyrazol-3-yl]amino]pyrazine-2-carbonitrile]
IC50 [1]: > 1000 nM

N#Cc1cnc(Nc2cc(-c3c(OC4CCC4)cccc3O[C@@H]3CC[C@H](N)C3)[nH]n2)cn1 [Example 1-36, 5-((5-(2-(((1R,3S)-3-aminocyclopentyl)oxy)-6-cyclobutoxyphenyl)-1H-pyrazol-3-yl)amino)pyrazine-2-carbonitrile]
IC50 [1]: 100 to 500 nM

COc1cccc(O[C@@H]2CCC[C@@H](N)C2)c1-c1cc(Nc2cnc(C#N)cn2)n[nH]1 [Example 1-64, 5-((5-(2-(((1R,3R)-3-aminocyclohexyl)oxy)-6-methoxyphenyl)-1H-pyrazol-3-yl)amino)pyrazine-2-carbonitrile]
IC50 [1]: > 1000 nM
